Experimental data taken from patent US8088412B2, “Intralymphatic chemotherapy drug carriers” (priority 2008, dated 2012).
Like-named read-outs stand apart in the source and are kept apart here. Marks after values point to notes of the source that are not given here.

Tests used:
[1] = system: MCF7; assay: In vitro cell toxicity (DMEM, resazurin blue, 72 hrs); format: cell-based, human
Procedure: (§1) Cell lines were seeded into 96-well plates (5000 cells/well) in DMEM medium supplemented with 5% FBS and 1% penicillin/streptomycin.

[2] = system: MDA-MB-231; assay: as above; format: cell-based, human
Procedure: as §1

[3] = Tissue distribution after subcutaneous cisplatin or cisplatin-HA into right mammary fat pad; format: in vivo, Sprague-Dawley rats
Procedure: Animals were allowed to recover with access to food and water. […] Organs and tissues were washed with 0.9% saline and frozen (−80° C.) until analysis. Plasma was separated by centrifugation from whole blood and frozen (−80° C.).
In vitro release samples (n=3) and plasma samples (n=5) were diluted 200-fold and 10-fold, respectively, with 0.1% nitric acid for analysis. […] Lymph nodes were processed similarly using 10 mg of tissue. After digestion, samples were homogenized (Tissue Tearor, BioSpec Products Inc., Bartlesville, Okla.). All samples were centrifuged (17 000×g, 20 min), and the supernate used for analysis.
Analysis was performed on a Varian SpectrAA GTA-110 with graphite furnace and partition tubes. Samples (21 μL) were injected using the autosampler, followed by 19 μL of 0.1% nitric acid. […] The furnace program was as follows: ramp 25 to 80° C., hold 2 s, ramp to 120° C., hold 10 s, ramp to 1000° C., hold 5 s, ramp to 2700° C., hold 2 s, cool to 25° C. over 20 s. The graphite partition tube was cleaned every 40 samples by baking at 2800° C. for 7 s. Argon was used as the injection and carrier gas.

[4] = system: MDA-MB-468LN; assay: Cell proliferation over 72 hrs, resazurin blue; format: cell-based, human
Procedure: Preceding proliferation studies, cells were trypsinized and seeded into 96-well plates (5,000 cells/well). […] After 4 hrs, well fluorescence was measured (λex 560 nm, λem 590 nm) using a fluorophotometer (SpectraMax Gemini; Molecular Devices, Sunnyvale, Calif.). IC50 was determined as the midpoint between saline (positive) and cell-free (negative) controls for each plate.

[5] = system: MDA-1986 cells; assay: In vivo efficacy of HA-cisplatin, orthotopic HNSCC model; design: species or system Nu/Nu female athymic nude mice; details: intravenous, weekly dose of 3.3 mg/kg for 3 weeks; 3 mice
Excerpt: The in vivo efficacy of HA-cisplatin was studied. All treatment began once animal HNSCC tumors reached 100 mm3 volume. Treatment commenced for 3 weeks. All animals were given 5×10^5 MDA-1986 cells in the buccal mucosa of the left cheek (which is a novel orthotopic HNSCC model I developed this year) and tumors develop in 2-3 weeks.

[6] = system: MDA-MB-468LN tumor cells; assay: Efficacy of HA-doxorubicin vs intravenous doxorubicin, breast tumor xenograft; format: in vivo, nude mice; details: 6 weeks post-implantation; in saline via the tail vein, doses at 3 and 5 weeks
Procedure: Nude nu/nu mice were implanted with 1×10^6 cells (MDA-MB-468LN human breast cancer cells) into the mammary fatpad, after approximately 4 weeks a 100-200 mm^3 tumor had developed in the axillary lymph node package. Animals were randomly divided into four treatment groups of five animals each: intravenous saline, s.q. HA, intravenous cisplatin, or s.q. HA-cisplatin. At this point, doses were administered to the animals. In the HA-cisplatin and the HA groups, HA-cisplatin (3.3 mg/kg based on Pt-content) or HA (3.3 mg/kg) was dissolved in 100 mcL saline was injected subcutaneously peritumorally. […] In all study groups, a second dose was administered after 1 week. Tumor volumes were measured weekly using calipers and the formula: Volume=0.52×(width^2*length). Animals were euthanized when the tumor volume exceeded […] or the body score index fell below 2.
To evaluate the efficacy of HA-doxorubicin conjugates injected subcutaneously in the […] compared with intravenous doxorubicin, the following experiment was performed. MDA-MB-468LN tumor cells into nude mice as described in [128] and divided into four groups of five animals each. After 3 weeks, HA-DOX was injected peritumorally at 3.3 mg/kg (DOX basis), DOX was injected in saline via the tail vein, HA was injected peritumorally, and saline was injected via the tail vein. […]

## N.N.[Cl][Pt][Cl] [Cisplatin, cis-diamminedichloroplatinum, reference compound]
[1]; MCF-7, cisplatin basis
  IC50: 7 mg/L
[1]; MCF-7, read-out: IC50
  IC50: 23 µM
[2]; cisplatin basis
  IC50: 4 mg/L
[2]; cisplatin basis, listed as cisplatin
  IC50: 7 mg/L
[2]; read-out: IC50
  IC50: 13 µM
[3]; Bladder, subcutaneous into right mammary fatpad of female rats
  AUC (0-96 hrs): 208.5 µg·h/g
[3]; Brain, subcutaneous into right mammary fatpad
  AUC (0-96 hrs): 442.5 µg·h/g
[3]; Heart, subcutaneous into right mammary fatpad
  AUC (0-96 hrs): 459.0 µg·h/g
[3]; Kidneys, subcutaneous into right mammary fatpad
  AUC (0-96 hrs): 650.9 µg·h/g
[3]; Left lymph node (LLN), subcutaneous into right mammary fatpad
  AUC (0-96 hrs): 349.5 µg·h/g
[3]; Liver, subcutaneous into right mammary fatpad
  AUC (0-96 hrs): 415.6 µg·h/g
[3]; Lungs, subcutaneous into right mammary fatpad
  AUC (0-96 hrs): 409.8 µg·h/g
[3]; Muscle, subcutaneous into right mammary fatpad
  AUC (0-96 hrs): 371.5 µg·h/g
[3]; Plasma, subcutaneous into right mammary fatpad
  AUC (0-96 hrs): 174.1 µg·h/g
[3]; Right lymph node (RLN), subcutaneous into right mammary fatpad, p < 0.05
  AUC (0-96 hrs): 446.0 ^† μg · hr/g
[3]; Spleen, subcutaneous into right mammary fatpad
  AUC (0-96 hrs): 349.1 µg·h/g
[3]; intravenous (as worded in legend of FIG. 10B)
  serum Cmax: over 4 micrograms/mL
[4]; HA carriers on a Pt-basis equivalent to cisplatin
  IC50: 5 mg/L
[4]; Pt-basis, read-out: IC50
  IC50: 17 µM
[5]
  tumor growth delay: about 3 weeks

## COc1cccc2c1C(=O)c1c(O)c3c(c(O)c1C2=O)C[C@@](O)(C(=O)CO)C[C@@H]3O[C@H]1C[C@H](N)[C@H](O)[C@H](C)O1 [DOX, doxorubicin]
[6]
  tumor volume: greater than 300 mm^3
